Test results as given in patent publication US20130303535A1, “NOVEL BICYCLIC HETEROCYCLIC COMPOUND” (priority 2008, published 2013).

Target: TTX resistant Na channel of human SNS-expressing cell (SNS) (Homo sapiens, UniProt Q9Y5Y9)
Assay: cell-based
Details: CHO-K1, compound concentration 12.5 μM; read-out: SNS inhibitory rate (%)

TTX resistant Na channel of human SNS-expressing cell (SNS), sequence (Q9Y5Y9 whole entry, looked up): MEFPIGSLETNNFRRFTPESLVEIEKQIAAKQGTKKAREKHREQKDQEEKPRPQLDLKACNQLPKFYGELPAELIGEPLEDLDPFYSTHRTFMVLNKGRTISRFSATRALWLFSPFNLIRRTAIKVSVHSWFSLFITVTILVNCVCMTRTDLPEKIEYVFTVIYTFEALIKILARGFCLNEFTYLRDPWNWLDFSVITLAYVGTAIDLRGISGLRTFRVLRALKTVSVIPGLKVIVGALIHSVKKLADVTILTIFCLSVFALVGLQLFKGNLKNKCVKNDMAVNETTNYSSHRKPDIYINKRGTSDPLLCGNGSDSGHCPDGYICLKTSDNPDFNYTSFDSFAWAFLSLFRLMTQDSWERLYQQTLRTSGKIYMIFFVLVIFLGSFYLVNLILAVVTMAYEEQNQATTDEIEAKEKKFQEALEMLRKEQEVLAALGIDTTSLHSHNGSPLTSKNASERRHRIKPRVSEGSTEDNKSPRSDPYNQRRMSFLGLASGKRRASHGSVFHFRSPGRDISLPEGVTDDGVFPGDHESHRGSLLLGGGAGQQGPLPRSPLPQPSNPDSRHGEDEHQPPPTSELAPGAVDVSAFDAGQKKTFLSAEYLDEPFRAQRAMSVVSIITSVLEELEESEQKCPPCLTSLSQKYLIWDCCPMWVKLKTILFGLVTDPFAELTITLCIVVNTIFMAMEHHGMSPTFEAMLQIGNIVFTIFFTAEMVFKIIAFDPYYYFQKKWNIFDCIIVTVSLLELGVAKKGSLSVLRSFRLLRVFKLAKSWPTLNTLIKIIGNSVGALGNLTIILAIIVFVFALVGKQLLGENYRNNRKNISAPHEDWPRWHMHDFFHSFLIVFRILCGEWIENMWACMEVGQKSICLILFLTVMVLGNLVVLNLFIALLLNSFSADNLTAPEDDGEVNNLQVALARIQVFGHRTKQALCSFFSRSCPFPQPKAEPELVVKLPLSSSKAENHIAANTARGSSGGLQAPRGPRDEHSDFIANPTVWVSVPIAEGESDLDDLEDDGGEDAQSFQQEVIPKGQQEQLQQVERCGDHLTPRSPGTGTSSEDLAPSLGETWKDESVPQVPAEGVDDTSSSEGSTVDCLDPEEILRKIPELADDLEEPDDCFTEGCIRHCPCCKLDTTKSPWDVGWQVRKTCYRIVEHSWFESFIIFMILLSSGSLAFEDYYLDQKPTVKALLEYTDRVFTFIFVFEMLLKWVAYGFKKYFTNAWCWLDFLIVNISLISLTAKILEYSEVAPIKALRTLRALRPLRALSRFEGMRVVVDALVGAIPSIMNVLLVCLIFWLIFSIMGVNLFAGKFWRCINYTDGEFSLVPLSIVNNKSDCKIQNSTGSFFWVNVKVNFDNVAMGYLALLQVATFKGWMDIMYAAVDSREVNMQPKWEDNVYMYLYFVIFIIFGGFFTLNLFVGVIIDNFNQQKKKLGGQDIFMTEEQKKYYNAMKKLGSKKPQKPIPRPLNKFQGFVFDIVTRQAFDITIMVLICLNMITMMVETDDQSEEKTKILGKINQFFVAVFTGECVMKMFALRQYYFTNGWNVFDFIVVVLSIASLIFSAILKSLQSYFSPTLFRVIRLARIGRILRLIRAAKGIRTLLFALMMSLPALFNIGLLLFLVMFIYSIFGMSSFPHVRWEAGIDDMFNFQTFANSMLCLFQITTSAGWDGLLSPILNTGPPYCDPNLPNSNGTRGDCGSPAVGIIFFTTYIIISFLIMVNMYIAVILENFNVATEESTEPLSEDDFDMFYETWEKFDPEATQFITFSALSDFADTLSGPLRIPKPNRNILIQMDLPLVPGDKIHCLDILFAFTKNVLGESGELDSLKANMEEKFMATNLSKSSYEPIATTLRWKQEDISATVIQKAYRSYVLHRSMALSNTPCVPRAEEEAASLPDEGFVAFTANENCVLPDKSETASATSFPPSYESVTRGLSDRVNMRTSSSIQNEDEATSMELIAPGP

Structure (SMILES) | inhibition at 12.5 µM [%]
CCOCCn1c(CN[C@@H](C)C(N)=O)nc2ccc(Oc3ccccc3)cc21 [Example 1, N^2-{[1-(2-ethoxyethyl)-6-phenoxy-1H-benzimidazol-2-yl]methyl}-L-alaninamide] | 45.8
CCOCCn1c(CNCC(N)=O)nc2ccc(Oc3ccccc3)cc21 [Example 2, N^2-{[1-(2-ethoxyethyl)-6-phenoxy-1H-benzimidazol-2-yl]methyl}glycinamide] | 8.4
CCOCCn1c(CNCC(N)=O)nc2ccc(Oc3ccc(F)cc3)cc21 [Example 3, N^2-{[1-(2-ethoxyethyl)-6-(4-fluorophenoxy)-1H-benzimidazol-2-yl]methyl}glycinamide] | 12.9
CCOCCn1c(CN[C@H](C(N)=O)C(C)C)nc2ccc(Oc3ccc(F)cc3)cc21 [Example 4, N^2-{[1-(2-ethoxyethyl)-6-(4-fluorophenoxy)-1H-benzimidazol-2-yl]methyl}-L-valinamide] | 66.8
CCOCCn1c(CNC(C)(C)C(N)=O)nc2ccc(Oc3ccc(F)cc3)cc21 [Example 5, N^2-{[1-(2-ethoxyethyl)-6-(4-fluorophenoxy)-1H-benzimidazol-2-yl]methyl}-2-methylalaninamide] | 59.3
C[C@H](NCc1nc2ccc(Oc3ccc(F)cc3)cc2n1C1CCOCC1)C(N)=O [Example 6] | 77.8
C[C@H](NCc1nc2ccc(Oc3ccc(F)cc3)cc2n1C1CC1)C(N)=O [Example 7] | 83.1
CC(C)(NCc1nc2ccc(Oc3ccc(F)cc3)cc2n1C1CCOCC1)C(N)=O [Example 8] | 90.4
CC(C)n1c(CN[C@@H](C)C(N)=O)nc2ccc(Oc3ccccc3)cc21 [Example 9] | 28.9
CC(C)n1c(CNCC(N)=O)nc2ccc(Oc3ccccc3)cc21 [Example 10] | 16.3
C[C@H](NCc1nc2ccc(Oc3ccccc3)cc2n1C1CCC1)C(N)=O [Example 11] | 63
NC(=O)CNCc1nc2ccc(Oc3ccccc3)cc2n1C1CCC1 [Example 12] | 17
C[C@H](NCc1nc2ccc(Oc3ccccc3)cc2n1CC1CCOCC1)C(N)=O [Example 13] | 29.8
NC(=O)CNCc1nc2ccc(Oc3ccccc3)cc2n1CC1CCOCC1 [Example 14] | 16.4
CCOCCn1c(CN2CCC[C@H]2C(N)=O)nc2ccc(Oc3ccc(F)cc3)cc21 [Example 15] | 95.7
NC(=O)[C@@H]1CCCN1Cc1nc2ccc(Oc3ccccc3)cc2n1CC1CCOCC1 [Example 16] | 96.2
C[C@H](NCc1nc2ccc(Oc3ccc(F)cc3)cc2n1C1CCC1)C(N)=O [Example 17] | 89.3
NC(=O)CNCc1nc2ccc(Oc3ccc(F)cc3)cc2n1C1CCC1 [Example 18] | 14.2
NC(=O)[C@@H]1CCCN1Cc1nc2ccc(Oc3ccccc3)cc2n1C[C@H]1CCCO1 [Example 19] | 100
C[C@H](NCc1nc2ccc(Oc3ccccc3)cc2n1C[C@H]1CCCO1)C(N)=O [Example 20] | 7.2
NC(=O)[C@@H]1CCCN1Cc1nc2ccc(Oc3ccccc3)cc2n1C[C@@H]1CCCO1 [Example 21] | 100
C[C@H](NCc1nc2ccc(Oc3ccccc3)cc2n1C[C@@H]1CCCO1)C(N)=O [Example 22] | 16.4
COCCCn1c(CNCC(N)=O)nc2ccc(Oc3ccccc3)cc21 [Example 23] | 0.8
COCCCn1c(CN[C@@H](C)C(N)=O)nc2ccc(Oc3ccccc3)cc21 [Example 24] | 5.8
NC(=O)CNCc1nc2ccc(Oc3ccccc3)cc2n1C1CCCC1 [Example 25] | 0

Structure (SMILES) | inhibition at 12.5 µM [%]
C[C@H](NCc1nc2ccc(Oc3ccccc3)cc2n1C1CCCC1)C(N)=O [Example 26] | 26.6
CCOCCn1c(CN[C@@H](C)C(N)=O)nc2ccc(Oc3ccc(Cl)cc3)cc21 [Example 27] | 78.2
CCOCCn1c(CNCC(N)=O)nc2ccc(Oc3ccc(Cl)cc3)cc21 [Example 28] | 27.4
CCOCCn1c(CN[C@@H](C)C(N)=O)nc2ccc(Oc3cccc(Cl)c3)cc21 [Example 29] | 27
CCOCCn1c(CNC(C)(C)C(N)=O)nc2ccc(Oc3cccc(Cl)c3)cc21 [Example 30] | 31.5
CCOCCn1c(CN[C@@H](C)C(N)=O)nc2ccc(Oc3ccccc3Cl)cc21 [Example 31] | 92.1
CCOCCn1c(CNC(C)(C)C(N)=O)nc2ccc(Oc3ccccc3Cl)cc21 [Example 32] | 91.2
CC(C)(NCc1nc2ccc(Oc3ccccc3)cc2n1C1CCC1)C(N)=O [Example 33] | 32.9
C[C@@H](NCc1nc2ccc(Oc3ccccc3)cc2n1C1CCC1)C(N)=O [Example 34] | 6.7
CC(C)(NCc1nc2ccc(Oc3ccccc3)cc2n1C[C@@H]1CCCO1)C(N)=O [Example 35] | 10.8
CCOCCn1c(CN[C@H](C)C(N)=O)nc2ccc(Oc3ccccc3)cc21 [Example 36] | 0.4
CCOCCn1c(CN[C@@H](CC)C(N)=O)nc2ccc(Oc3ccccc3)cc21 [Example 37] | 42.3
CCOCCn1c(CN[C@H](C(N)=O)C(C)C)nc2ccc(Oc3ccccc3)cc21 [Example 38] | 48.8
CCOCCn1c(CNC(C)(C)C(N)=O)nc2ccc(Oc3ccccc3)cc21 [Example 39] | 48.8
CCOCCn1c(CN(C)CC(N)=O)nc2ccc(Oc3ccccc3)cc21 [Example 40] | 95.8
CCOCCn1c(CN[C@@H](CC)C(N)=O)nc2ccc(Oc3ccc(F)cc3)cc21 [Example 41] | 99.7
CCOCCn1c(CN[C@@H](C)C(N)=O)nc2ccc(Oc3ccc(C)cc3)cc21 [Example 42] | 76.7
CCOCCn1c(CN[C@@H](C)C(N)=O)nc2ccc(Oc3ccc(OC(F)(F)F)cc3)cc21 [Example 43] | 61
CCOCCn1c(CN[C@@H](C)C(N)=O)nc2ccc(Oc3cc(F)c(F)c(F)c3)cc21 [Example 44] | 84.9
CCOCCn1c(CN[C@@H](C)C(N)=O)nc2ccc(Oc3ccc(C#N)cc3)cc21 [Example 45] | 40.6
CCOCCn1c(CN[C@@H](C)C(N)=O)nc2ccc(Oc3ccc(C(F)(F)F)cc3)cc21 [Example 46] | 95.5
CCOCCCn1c(CN[C@@H](C)C(N)=O)nc2ccc(Oc3ccc(F)cc3)cc21 [Example 47] | 86.6
CCOCCn1c(CN[C@@H](C)C(N)=O)nc2ccc(Oc3ccc(F)c(F)c3)cc21 [Example 48] | 96.7
CCOCCn1c(CN[C@@H](C)C(N)=O)nc2ccc(Oc3ccc(F)cc3F)cc21 [Example 49] | 94.8
C[C@H](NCc1nc2ccc(Oc3ccc(F)cc3)cc2n1CC(C)(C)O)C(N)=O [Example 50] | 86.8

Structure (SMILES) | inhibition at 12.5 µM [%]
C[C@H](NCc1nc2ccc(Oc3ccc(F)cc3)cc2n1C[C@H]1CCCO1)C(N)=O [Example 51] | 90.5
CCOCCn1c(CN[C@@H](C)C(N)=O)nc2ccc(Oc3ccccc3F)cc21 [Example 52] | 89.7
CCOCCn1c(CN[C@@H](C)C(N)=O)nc2ccc(Oc3cccc(F)c3)cc21 [Example 53] | 94
CCOCCn1c(CN[C@H](C)C(N)=O)nc2ccc(Oc3ccc(F)cc3)cc21 [Example 54] | 95.7
CCOCCn1c(CN[C@@H](C)C(N)=O)nc2ccc(Oc3cc(F)c(F)cc3F)cc21 [Example 55] | 89.4
C[C@H](NCc1nc2ccc(Oc3ccc(F)cc3)cc2n1C[C@@H]1CCCO1)C(N)=O [Example 56] | 82.2
CCOCCn1c(CN[C@@H](C)C(N)=O)nc2ccc(Oc3cc(F)cc(F)c3F)cc21 [Example 57] | 87.6
CCOCCn1c(CN[C@@H](C)C(N)=O)nc2ccc(Oc3cccc(F)c3F)cc21 [Example 58] | 71.2
CCOCCn1c(CN[C@@H](C)C(N)=O)nc2ccc(Oc3ccc(F)cc3)cc21 [Example 59, N^2-{[1-(2-ethoxyethyl)-6-(4-fluorophenoxy)-1H-benzimidazol-2-yl]methyl}-L-alaninamide] | 54.8
COCCn1c(CN[C@@H](C)C(N)=O)nc2ccc(Oc3ccc(F)cc3)cc21 [Example 60] | 75.7
CC(C)OCCn1c(CNCC(N)=O)nc2ccc(Oc3ccc(F)cc3)cc21 [Example 61] | 26.1
CC(C)OCCn1c(CN[C@@H](C)C(N)=O)nc2ccc(Oc3ccc(F)cc3)cc21 [Example 62] | 93.8
COCCn1c(CNCC(N)=O)nc2ccc(Oc3ccc(F)cc3)cc21 [Example 63] | 9.2
COCCCn1c(CN[C@@H](C)C(N)=O)nc2ccc(Oc3ccc(F)cc3)cc21 [Example 64] | 82.7
NC(=O)CNCc1nc2ccc(Oc3ccc(F)cc3)cc2n1C1CCOCC1 [Example 65] | 47.8
CCOCCn1c(CNCC(N)=O)nc2ccc(-c3ccccc3)cc21 [Example 66, N^2-{[1-(2-ethoxyethyl)-6-phenyl-1H-benzimidazol-2-yl]methyl}glycinamide] | 16.8
CCOCCn1c(CNCC(N)=O)nc2ccc(-c3ccc(F)cc3)cc21 [Example 67] | 30.8
CCOCCn1c(CN[C@@H](C)C(N)=O)nc2ccc(-c3ccc(F)cc3)cc21 [Example 68] | 16
CCOCCn1c(CN[C@@H](C)C(N)=O)nc2ccc(-c3ccccc3)cc21 [Example 69] | 22.3
CCOCCn1c(CNCC(N)=O)nc2ccc(-c3ccccc3Cl)cc21 [Example 70] | 11.2
CCOCCn1c(CN[C@@H](C)C(N)=O)nc2ccc(-c3ccccc3Cl)cc21 [Example 71] | 73.7
CCOCCn1c(CNCC(N)=O)nc2ccc(-c3ccc(Cl)cc3)cc21 [Example 72] | 7.3
CCOCCn1c(CN[C@@H](C)C(N)=O)nc2ccc(-c3ccc(Cl)cc3)cc21 [Example 73] | 8
